Measurements reported in patent US20260041649A1, “ANTI-INFLAMMATORY AGENT” (WATANABE OYSTER LABORATORY, CO., LTD., priority 2023, published 2026).

System: mouse macrophage RAW264.7 cells
Test: Western blotting of caspase-3 and cleaved caspase-3
Type: cell-based
Conditions: DHMBA 10 μM, 3 days
Protocol: FIG. 4 is an explanatory diagram describing that the marine factor 3,5-dihydroxy-4-methoxy benzyl alcohol (DHMBA) stimulates cell death in mouse macrophage RAW264.7 cells. RAW264.7 cells (1×10^5 cells/ml/well in a 24-well plate) were cultured in DMEM containing 10% FBS, 1% P/S, and 1% fungizone for 3 days until they reached subconfluence. The cells were cultured for another 24 hours (FIG. 4A) or 48 hours (FIG. 4B) in the control group (1% ethanol; 0 μM DHMBA as final concentration) and in the DHMBA-treated group (0.1, 1, 10, 100, or 1000 μM). […] After the culture, the number of cells attached to the dish was counted. […]
RAW264.7 cells (1×10^6 cells/10 ml of 100 mm dish) were cultured for 3 days in 10% FBS, 1% P/S (1% ethanol), or in the DHMBA-treated group (10 μM). […] Protein concentrations in the supernatants were measured using Bio-Rad Protein Assay Dye (Bio-Rad Laboratories, Inc., Hercules, CA, USA) with bovine serum albumin as a standard. […] After incubation, the membranes were further incubated with horseradish peroxidase-conjugated secondary antibodies (Santa Cruz Biotechnology Inc., cat. no. sc-2005 (mouse) or sc-2305 (rabbit); dilution 1:2000) for 60 min at room temperature, and protein bands were detected using chemiluminescence substrates (cat. no. 34577, Thermo Fisher Scientific Inc., Rockford, IL, USA) on X-ray films. […]

Compound: COc1c(O)cc(CO)cc1O [DHMBA, 3,5-dihydroxy-4-methoxybenzyl alcohol]
- level of caspase-3: increased
- level of cleaved caspase-3: increased
